Test results taken from patent US10988477B2 (Merck Patent GmbH, priority 2018, dated 2021).

Assays:
GCN2 kinase = GCN2 kinase (Homo sapiens, UniProt Q9P2K8); assay: GCN2 enzyme inhibition assay (Transcreener ADP2 fluorescence polarization); assay type: biochemical; conditions: Enzyme activity for compounds of Formula IV; Ki(app), 280 μM ATP, 25° C.
In short: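 ADP formation read by Transcreener FP after a 1 h, 25 °C kinase reaction containing 280 μM ATP, 200 μM (RS)7 substrate and 4 nM GCN2, pH 7.5 Tris buffer. Compounds (0–8 μM final) were added 10 min before ATP. Percent inhibition gave IC50 and apparent Ki via tight-binding fit.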

[1] = target: intracellular GCN2 (phosphorylation of the GCN2 substrate eIF2α) (Homo sapiens, UniProt Q9P2K8); assay: GCN2 cellular inhibition assay (AlphaScreen SureFire P-eIF2α Ser51, borrelidin-treated U2OS cells); assay type: cell-based; conditions: compounds of Formula IV; biomarker assay, phosphorylated eIF2α Ser51 in borrelidin-treated U2OS cells
In short: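 U2OS cells adhered overnight, then treated with compounds (4-fold serial dilutions from 40 μM final) plus borrelidin 10 μM final for 1 h at 37 °C. Lysate eIF2α Ser51 phosphorylation measured by AlphaScreen SureFire. Percent inhibition calculated relative to borrelidin-only wells.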

GCN2 kinase, sequence (Q9P2K8 whole entry): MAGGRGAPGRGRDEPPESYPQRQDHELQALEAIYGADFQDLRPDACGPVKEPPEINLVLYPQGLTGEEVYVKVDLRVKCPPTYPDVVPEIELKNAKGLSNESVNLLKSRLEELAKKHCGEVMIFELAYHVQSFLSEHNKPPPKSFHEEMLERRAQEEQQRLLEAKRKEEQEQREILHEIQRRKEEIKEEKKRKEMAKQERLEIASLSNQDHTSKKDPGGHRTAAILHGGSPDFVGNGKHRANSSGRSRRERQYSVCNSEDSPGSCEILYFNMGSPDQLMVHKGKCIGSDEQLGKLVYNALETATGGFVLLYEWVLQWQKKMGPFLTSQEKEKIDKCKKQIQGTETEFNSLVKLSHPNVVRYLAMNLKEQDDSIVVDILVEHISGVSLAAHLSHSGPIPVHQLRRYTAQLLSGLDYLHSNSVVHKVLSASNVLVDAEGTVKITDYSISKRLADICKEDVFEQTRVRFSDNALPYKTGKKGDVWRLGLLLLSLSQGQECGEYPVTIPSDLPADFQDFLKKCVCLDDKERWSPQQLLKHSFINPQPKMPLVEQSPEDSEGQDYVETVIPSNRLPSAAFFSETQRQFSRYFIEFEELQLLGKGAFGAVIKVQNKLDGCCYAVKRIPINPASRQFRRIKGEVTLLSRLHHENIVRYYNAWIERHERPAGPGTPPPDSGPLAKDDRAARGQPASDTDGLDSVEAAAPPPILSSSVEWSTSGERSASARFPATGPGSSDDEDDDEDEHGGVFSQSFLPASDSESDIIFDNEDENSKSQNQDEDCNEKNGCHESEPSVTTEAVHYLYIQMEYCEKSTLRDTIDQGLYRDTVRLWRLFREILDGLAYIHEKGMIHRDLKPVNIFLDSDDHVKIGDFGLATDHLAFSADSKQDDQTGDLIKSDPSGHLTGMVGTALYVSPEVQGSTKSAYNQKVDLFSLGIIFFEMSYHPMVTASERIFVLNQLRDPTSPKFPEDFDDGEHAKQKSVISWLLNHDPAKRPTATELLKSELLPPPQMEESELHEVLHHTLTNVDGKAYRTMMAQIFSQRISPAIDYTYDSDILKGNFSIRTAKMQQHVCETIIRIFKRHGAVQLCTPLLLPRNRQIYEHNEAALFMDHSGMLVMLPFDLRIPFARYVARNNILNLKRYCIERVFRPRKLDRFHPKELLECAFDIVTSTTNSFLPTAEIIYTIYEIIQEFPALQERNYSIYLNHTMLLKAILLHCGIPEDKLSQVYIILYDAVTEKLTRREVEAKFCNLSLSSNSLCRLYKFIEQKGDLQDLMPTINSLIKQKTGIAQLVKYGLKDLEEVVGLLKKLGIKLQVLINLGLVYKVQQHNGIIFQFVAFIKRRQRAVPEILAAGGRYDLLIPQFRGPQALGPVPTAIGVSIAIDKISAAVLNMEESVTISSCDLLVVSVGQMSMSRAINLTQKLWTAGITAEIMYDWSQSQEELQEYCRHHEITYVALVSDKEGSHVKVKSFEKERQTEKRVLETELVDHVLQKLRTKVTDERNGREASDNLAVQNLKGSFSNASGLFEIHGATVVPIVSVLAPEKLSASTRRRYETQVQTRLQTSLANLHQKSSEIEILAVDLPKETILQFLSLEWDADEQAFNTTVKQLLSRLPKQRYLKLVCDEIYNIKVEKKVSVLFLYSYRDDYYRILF
intracellular GCN2 (phosphorylation of the GCN2 substrate eIF2α), sequence (Q9P2K8 whole entry): as above

Row | Structure (SMILES) | Ki (GCN2 kinase) [µM] | IC50 [1] [µM]
1 | NC(=O)C1CN(c2ccnc(-c3cnc4cnc(C(F)(F)F)cn34)n2)CC(F)(F)C1 (stereo not drawn) [IV-582, 5,5-Difluoro-1-(2-(6-(trifluoromethyl)imidazo[1,2-a]pyrazin-3-yl)pyrimidin-4-yl)piperidine-3-carboxamide] | 0.01 to 0.1 | 0.5 to 5
2 | FC(F)(F)c1cn2c(-c3nccc(N4CCCC(c5cc[nH]n5)C4)n3)cnc2cn1 (stereo not drawn) [IV-589, 3-(4-(3-(1H-Pyrazol-3-yl)piperidin-1-yl)pyrimidin-2-yl)-6-(trifluoromethyl)imidazo[1,2-a]pyrazine] | 0.01 to 0.1 | 0.5 to 5
3 | CP(C)(=O)C1CC(c2cn[nH]c2)CN(c2ccnc(-c3cnc4cnc(C(F)(F)F)cn34)n2)C1 (stereo not drawn) [IV-590, (5-(1H-Pyrazol-4-yl)-1-(2-(6-(trifluoromethyl)imidazo[1,2-a]pyrazin-3-yl)pyrimidin-4-yl)piperidin-3-yl)dimethylphosphine oxide] | 0.1 to 1 | > 5
4 | FC(F)(F)c1cn2c(-c3nccc(N4CCCC(c5cn[nH]c5Cl)C4)n3)cnc2cn1 (stereo not drawn) [IV-601, 3-(4-(3-(5-Chloro-1H-pyrazol-4-yl)piperidin-1-yl)pyrimidin-2-yl)-6-(trifluoromethyl)imidazo[1,2-a]pyrazine] | < 0.01 | < 0.5
5 | NC(=O)C1CCCN(c2ccnc(-c3cnc4cnc(C(F)(F)F)cn34)n2)C1 (stereo not drawn) [IV-626, 1-(2-(6-(Trifluoromethyl)imidazo[1,2-a]pyrazin-3-yl)pyrimidin-4-yl)piperidine-3-carboxamide] | < 0.01 | 0.5 to 5
6 | CC1CCC(C(N)=O)CN1c1ccnc(-c2cnc3cnc(C(F)(F)F)cn23)n1 (stereo not drawn) [IV-631, 6-Methyl-1-(2-(6-(trifluoromethyl)imidazo[1,2-a]pyrazin-3-yl)pyrimidin-4-yl)piperidine-3-carboxamide] | 0.01 to 0.1 | 0.5 to 5
7 | CC1CN(c2cc(N3CCC3)nc(-c3cnc4cnc(C(F)(F)F)cn34)n2)C(C)C(c2cn[nH]c2)N1 (stereo not drawn) [IV-637, 3-(4-(Azetidin-1-yl)-6-(2,5-dimethyl-3-(1H-pyrazol-4-yl)piperazin-1-yl)pyrimidin-2-yl)-6-(trifluoromethyl)imidazo[1,2-a]pyrazine] | < 0.01 | 0.5 to 5
8 | FC(F)(F)c1cn2c(-c3nccc(N4CCCC(c5nccs5)C4)n3)cnc2cn1 (stereo not drawn) [IV-675, 2-(1-(2-(6-(Trifluoromethyl)imidazo[1,2-a]pyrazin-3-yl)pyrimidin-4-yl)piperidin-3-yl)thiazole] | 0.01 to 0.1 | > 5
9 | FC(F)(F)c1cn2c(-c3nccc(N4CCCC(c5cnco5)C4)n3)cnc2cn1 (stereo not drawn) [IV-678, 5-(1-(2-(6-(Trifluoromethyl)imidazo[1,2-a]pyrazin-3-yl)pyrimidin-4-yl)piperidin-3-yl)oxazole] | 0.01 to 0.1 | 0.5 to 5
10 | FC(F)(F)c1cn2c(-c3nccc(N4CC(c5cn[nH]c5)N5CCC[C@H]5C4)n3)cnc2cn1 (stereo partly drawn) [IV-679, 3-(4-((8aS)-4-(1H-Pyrazol-4-yl)hexahydropyrrolo[1,2-a]pyrazin-2(1H)-yl)pyrimidin-2-yl)-6-(trifluoromethyl)imidazo[1,2-a]pyrazine] | < 0.01 | 0.5 to 5
11 | FC(F)(F)c1cn2c(-c3nccc(N4CCC(c5cn[nH]c5)CC4)n3)cnc2cn1 [IV-680, 3-(4-(4-(1H-Pyrazol-4-yl)piperidin-1-yl)pyrimidin-2-yl)-6-(trifluoromethyl)imidazo[1,2-a]pyrazine] | 0.01 to 0.1 | 0.5 to 5
12 | CC1CN(c2ccnc(-c3cnc4cnc(C(F)(F)F)cn34)n2)C(C)C(c2cnn(C)c2)N1 (stereo not drawn) [IV-687, 3-(4-(2,5-Dimethyl-3-(1-methyl-1H-pyrazol-4-yl)piperazin-1-yl)pyrimidin-2-yl)-6-(trifluoromethyl)imidazo[1,2-a]pyrazine] | 0.1 to 1 | 0.5 to 5
13 | CC1CN(c2cc(F)cc(-c3cnc4cnc(C(F)(F)F)cn34)n2)C(C)C(c2cn[nH]c2)N1 (stereo not drawn) [IV-690, 3-(6-(2,5-Dimethyl-3-(1H-pyrazol-4-yl)piperazin-1-yl)-4-fluoropyridin-2-yl)-6-(trifluoromethyl)imidazo[1,2-a]pyrazine] | < 0.01 | 0.5 to 5
14 | FC(F)(F)c1cn2c(-c3nccc(N4CCCC(c5cncs5)C4)n3)cnc2cn1 (stereo not drawn) [IV-691, 5-(1-(2-(6-(Trifluoromethyl)imidazo[1,2-a]pyrazin-3-yl)pyrimidin-4-yl)piperidin-3-yl)thiazole] | 0.01 to 0.1 | 0.5 to 5

The remaining lines, values ahead:

Row | Ki (GCN2 kinase) [µM] | IC50 [1] [µM] | Structure (SMILES)
15 | < 0.01 | 0.5 to 5 | CC1CN(c2cccc(-c3cnc4cnc(C(F)(F)F)cn34)n2)C(C)C(c2cn[nH]c2)N1 (stereo not drawn) [IV-583, 3-(6-(2,5-Dimethyl-3-(1H-pyrazol-4-yl)piperazin-1-yl)pyridin-2-yl)-6-(trifluoromethyl)imidazo[1,2-a]pyrazine]
16 | 0.1 to 1 | > 5 | CP(C)(=O)C1CC(c2cn[nH]c2)CN(c2ccnc(-c3cnc4cnc(C(F)(F)F)cn34)n2)C1 (stereo not drawn) [IV-591, (5-(1H-Pyrazol-4-yl)-1-(2-(6-(trifluoromethyl)imidazo[1,2-a]pyrazin-3-yl)pyrimidin-4-yl)piperidin-3-yl)dimethylphosphine oxide]
17 | < 0.01 | 0.5 to 5 | COc1cc(N2CC(C)NC(c3cn[nH]c3)C2C)nc(-c2cnc3cnc(C(F)(F)F)cn23)n1 (stereo not drawn) [IV-593, 3-(4-(2,5-Dimethyl-3-(1H-pyrazol-4-yl)piperazin-1-yl)-6-methoxypyrimidin-2-yl)-6-(trifluoromethyl)imidazo[1,2-a]pyrazine]
18 | 0.1 to 1 | 0.5 to 5 | FC(F)(F)c1cn2c(-c3nccc(N4CCC(C5CCOC5)C4)n3)cnc2cn1 (stereo not drawn) [IV-608, 3-(4-(3-(Tetrahydrofuran-3-yl)pyrrolidin-1-yl)pyrimidin-2-yl)-6-(trifluoromethyl)imidazo[1,2-a]pyrazine]
19 | 0.1 to 1 | > 5 | FC(F)(F)c1cn2c(-c3nccc(N4CCC(C5CCOC5)C4)n3)cnc2cn1 (stereo not drawn) [IV-609, 3-(4-(3-(Tetrahydrofuran-3-yl)pyrrolidin-1-yl)pyrimidin-2-yl)-6-(trifluoromethyl)imidazo[1,2-a]pyrazine]
20 | < 0.01 | 0.5 to 5 | Cc1cc(N2CC(C)NC(c3cn[nH]c3)C2C)nc(-c2cnc3cnc(C(F)(F)F)cn23)n1 (stereo not drawn) [IV-627, 3-(4-(2,5-Dimethyl-3-(1H-pyrazol-4-yl)piperazin-1-yl)-6-methylpyrimidin-2-yl)-6-(trifluoromethyl)imidazo[1,2-a]pyrazine]
21 | 0.01 to 0.1 | > 5 | CC1(c2n[nH]cc2C2CCN(c3ccnc(-c4cnc5cnc(C(F)(F)F)cn45)n3)C2)CC1 (stereo not drawn) [IV-630, 3-(4-(3-(3-(1-Methylcyclopropyl)-1H-pyrazol-4-yl)pyrrolidin-1-yl)pyrimidin-2-yl)-6-(trifluoromethyl)imidazo[1,2-a]pyrazine]
22 | 0.01 to 0.1 | 0.5 to 5 | FC(F)(F)c1cn2c(-c3nccc(N4CCC(Cc5cn[nH]c5)C4)n3)cnc2cn1 (stereo not drawn) [IV-635, 3-(4-(3-((1H-Pyrazol-4-yl)methyl)pyrrolidin-1-yl)pyrimidin-2-yl)-6-(trifluoromethyl)imidazo[1,2-a]pyrazine]
23 | < 0.01 | 0.5 to 5 | CC1CN(c2cc(OCCO)nc(-c3cnc4cnc(C(F)(F)F)cn34)n2)C(C)C(c2cn[nH]c2)N1 (stereo not drawn) [IV-640, 2-((6-(2,5-Dimethyl-3-(1H-pyrazol-4-yl)piperazin-1-yl)-2-(6-(trifluoromethyl)imidazo[1,2-a]pyrazin-3-yl)pyrimidin-4-yl)oxy)ethan-1-ol]
24 | < 0.01 | 0.5 to 5 | CC1CN(c2cc(N=S(C)(C)=O)nc(-c3cnc4cnc(C(F)(F)F)cn34)n2)C(C)C(c2cn[nH]c2)N1 (stereo not drawn) [IV-648, ((6-(2,5-Dimethyl-3-(1H-pyrazol-4-yl)piperazin-1-yl)-2-(6-(trifluoromethyl)imidazo[1,2-a]pyrazin-3-yl)pyrimidin-4-yl)imino)dimethyl-λ^6-sulfanone]
25 | 0.01 to 0.1 | 0.5 to 5 | Cc1cc(N2CCC(c3cn[nH]c3)C2)nc(-c2cnc3cnc(C(F)(F)F)cn23)n1 (stereo not drawn) [IV-668, 3-(4-(3-(1H-Pyrazol-4-yl)pyrrolidin-1-yl)-6-methylpyrimidin-2-yl)-6-(trifluoromethyl)imidazo[1,2-a]pyrazine]
26 | 0.1 to 1 | 0.5 to 5 | CC1NCC(C)N(c2ccnc(-c3cnc4cnc(C(F)(F)F)cn34)n2)C1c1ccc(=O)[nH]c1 (stereo not drawn) [IV-676, 5-(3,6-Dimethyl-1-(2-(6-(trifluoromethyl)imidazo[1,2-a]pyrazin-3-yl)pyrimidin-4-yl)piperazin-2-yl)pyridin-2(1H)-one]
27 | 0.01 to 0.1 | 0.5 to 5 | CC1CN(c2ccnc(-c3cnc4cnc(C(F)(F)F)cn34)n2)C(C)C(c2ccc(=O)[nH]c2)N1 (stereo not drawn) [IV-677, 5-(3,6-Dimethyl-4-(2-(6-(trifluoromethyl)imidazo[1,2-a]pyrazin-3-yl)pyrimidin-4-yl)piperazin-2-yl)pyridin-2(1H)-one]
28 | 0.1 to 1 | 0.5 to 5 | FC(F)(F)c1cn2c(-c3nccc(N4CCCC(c5ncco5)C4)n3)cnc2cn1 (stereo not drawn) [IV-686, 2-(1-(2-(6-(Trifluoromethyl)imidazo[1,2-a]pyrazin-3-yl)pyrimidin-4-yl)piperidin-3-yl)oxazole]
29 | 0.01 to 0.1 | 0.5 to 5 | CC1C(c2cn[nH]c2)CCN1c1ccnc(-c2cnc3cnc(C(F)(F)F)cn23)n1 (stereo not drawn) [IV-688, 3-(4-(2-Methyl-3-(1H-pyrazol-4-yl)pyrrolidin-1-yl)pyrimidin-2-yl)-6-(trifluoromethyl)imidazo[1,2-a]pyrazine]
30 | 0.01 to 0.1 | > 5 | CC1C(c2cn[nH]c2)CCN1c1ccnc(-c2cnc3cnc(C(F)(F)F)cn23)n1 (stereo not drawn) [IV-689, 3-(4-(2-Methyl-3-(1H-pyrazol-4-yl)pyrrolidin-1-yl)pyrimidin-2-yl)-6-(trifluoromethyl)imidazo[1,2-a]pyrazine]
